Source: ChEMBL document CHEMBL1764969, “Design, synthesis and structure-activity relationship (SAR) studies of 2,4-disubstituted pyrimidine derivatives: dual activity as cholinesterase and Aβ-aggregation inhibitors” (Bioorg Med Chem, 2011)

Assays:
[1] = target: Butyrylcholinesterase (Equus caballus, UniProt Q9N1N9)
Description: Inhibition of equine BChE incubated with compounf for 5 mins before addition of substrate S-butyrylthiocholine iodide by Ellman's method

[2] = target: Acetylcholinesterase (Homo sapiens, UniProt P22303)
Sequence of Acetylcholinesterase (P22303 whole entry): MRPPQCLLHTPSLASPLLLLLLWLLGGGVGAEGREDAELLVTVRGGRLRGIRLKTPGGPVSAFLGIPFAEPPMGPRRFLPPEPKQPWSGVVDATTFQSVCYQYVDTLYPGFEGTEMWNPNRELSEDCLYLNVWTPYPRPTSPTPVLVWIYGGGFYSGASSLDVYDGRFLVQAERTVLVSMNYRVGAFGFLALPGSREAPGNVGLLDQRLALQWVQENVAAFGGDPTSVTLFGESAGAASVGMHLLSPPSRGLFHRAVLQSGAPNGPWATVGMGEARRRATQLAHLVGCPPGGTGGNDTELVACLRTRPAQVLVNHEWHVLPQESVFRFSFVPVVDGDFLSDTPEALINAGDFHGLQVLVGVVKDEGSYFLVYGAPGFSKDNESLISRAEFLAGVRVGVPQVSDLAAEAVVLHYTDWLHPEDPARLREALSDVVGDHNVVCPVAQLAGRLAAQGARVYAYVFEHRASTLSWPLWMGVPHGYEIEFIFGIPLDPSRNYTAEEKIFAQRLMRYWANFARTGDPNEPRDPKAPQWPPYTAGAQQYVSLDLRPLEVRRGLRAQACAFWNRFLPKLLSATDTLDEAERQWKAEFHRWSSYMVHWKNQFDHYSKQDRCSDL
Description: Inhibition of human AChE incubated with compounf for 5 mins before addition of substrate acetylthiocholine iodide by Ellman's method

Sequence of Butyrylcholinesterase (Q9N1N9 whole entry): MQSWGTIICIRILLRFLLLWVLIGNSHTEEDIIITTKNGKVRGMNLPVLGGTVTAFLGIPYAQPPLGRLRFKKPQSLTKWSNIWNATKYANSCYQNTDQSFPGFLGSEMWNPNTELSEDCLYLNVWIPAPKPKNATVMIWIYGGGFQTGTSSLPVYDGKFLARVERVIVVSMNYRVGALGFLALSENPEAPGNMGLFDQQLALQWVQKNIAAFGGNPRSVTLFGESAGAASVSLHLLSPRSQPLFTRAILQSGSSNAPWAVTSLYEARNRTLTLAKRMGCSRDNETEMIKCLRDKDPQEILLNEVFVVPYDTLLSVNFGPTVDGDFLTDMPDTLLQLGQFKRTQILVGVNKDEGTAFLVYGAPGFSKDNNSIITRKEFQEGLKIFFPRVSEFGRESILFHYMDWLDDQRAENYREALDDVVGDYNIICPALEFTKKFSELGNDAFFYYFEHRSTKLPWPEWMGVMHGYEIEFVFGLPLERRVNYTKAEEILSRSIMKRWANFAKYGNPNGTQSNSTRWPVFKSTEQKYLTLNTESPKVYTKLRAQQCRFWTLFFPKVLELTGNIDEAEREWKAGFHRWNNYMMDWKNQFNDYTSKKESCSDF

| SMILES | IC50 [1] [µM] | IC50 [2] [µM] |
| --- | --- | --- |
| CC1CCN(c2nccc(NCc3ccccc3)n2)CC1 | 3.4 | 18.4 |
| c1ccc(CCNc2ccnc(N3CCCC3)n2)cc1 |  | 9.8 |
| c1ccc(CCNc2ccnc(N3CCSCC3)n2)cc1 | > 100 | 26.4 |
| CN1CCN(c2nccc(NCCc3ccccc3)n2)CC1 | > 100 | 20.4 |
| CC1CCN(c2nccc(NCCc3ccccc3)n2)CC1 | 17.7 | 8.8 |
| c1ccc2c(CNc3ccnc(N4CCCC4)n3)cccc2c1 | 8.9 | 5.5 |
| c1ccc2c(CNc3ccnc(N4CCOCC4)n3)cccc2c1 | 28 | 14.7 |
| c1ccc2c(CNc3ccnc(N4CCSCC4)n3)cccc2c1 |  | 12.8 |
| CN1CCN(c2nccc(NCc3cccc4ccccc34)n2)CC1 | 2.6 | 17.5 |
| CN1CCN(c2nccc(NCc3ccccc3)n2)CC1 | > 100 | 24.9 |
| c1ccc(CCNc2ccnc(N3CCOCC3)n2)cc1 | > 100 | 19.7 |
| c1ccc(CNc2ccnc(N3CCCC3)n2)cc1 | 26.4 | 8.7 |
| c1ccc(CNc2ccnc(N3CCOCC3)n2)cc1 |  | 14 |
| c1ccc(CNc2ccnc(N3CCSCC3)n2)cc1 | 6.1 | 23.2 |
| CC(=O)N1CCN(c2nccc(NCc3ccccc3)n2)CC1 | > 100 | 16.6 |
| CC(C)(C)OC(=O)N1CCN(c2nccc(NCc3ccccc3)n2)CC1 | > 100 | 18.8 |
| c1ccc(CNc2ccnc(N3CCN(C4CCCCC4)CC3)n2)cc1 | 7.6 | 22.9 |

| SMILES | IC50 [1] [µM] | IC50 [2] [µM] |
| --- | --- | --- |
| CC(C)N1CCN(c2nccc(NCc3ccccc3)n2)CC1 | 3.4 | 25 |
| CC(C)C1CCN(c2nccc(NCc3ccccc3)n2)CC1 | 6.5 | 14.2 |
| CCCN1CCN(c2nccc(NCc3ccccc3)n2)CC1 | 59.9 | 15.3 |
| OCCN1CCN(c2nccc(NCc3ccccc3)n2)CC1 | > 100 | 26.4 |
| COCCN1CCN(c2nccc(NCc3ccccc3)n2)CC1 | > 100 | 26.7 |
| Clc1ccc(CN2CCN(c3nccc(NCc4ccccc4)n3)CC2)cc1 | 10.7 | 20.2 |
| Brc1ccc(CN2CCN(c3nccc(NCc4ccccc4)n3)CC2)cc1 | 14.3 | 25.5 |
| Fc1ccc(CN2CCN(c3nccc(NCc4ccccc4)n3)CC2)cc1 | 7.3 | 21.6 |
| FC(F)(F)c1ccc(CN2CCN(c3nccc(NCc4ccccc4)n3)CC2)cc1 | > 100 | 28.8 |
| c1ccc(CNc2ccnc(NC3CCN(Cc4ccccc4)CC3)n2)cc1 | 8.2 | 12.4 |
| [O-][S+]1CCN(c2nccc(NCc3ccccc3)n2)CC1 | > 100 | 12.6 |
| O=S1(=O)CCN(c2nccc(NCc3ccccc3)n2)CC1 | > 100 | 24.2 |
| c1ccc(CNc2ccnc(N3CCNCC3)n2)cc1 | > 100 | 15.5 |
| CC(=O)N1CCN(c2nccc(NCCc3ccccc3)n2)CC1 | > 100 | 19.9 |
| CC1CCN(c2nccc(NCc3cccc4ccccc34)n2)CC1 | 2.2 | 25.8 |
| c1ccc2c(NCCCCCCCNc3c4c(nc5ccccc35)CCCC4)c3c(nc2c1)CCCC3 | 0.01 |  |
